Laboratory results: patent US5030760A, “Tetrahydrophthalimides, and their production and use” (Sumitomo Chemical Company, Ltd., priority 1981, dated 1991)

What was measured:
[1] = tested on: corn; experiment: Test Example 1, foliar treatment, phytotoxicity to corn; type: in vivo; settings: 3 weeks; further: ranges in brackets are in %
Procedure, shortened: (§1)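 Crops and weeds sown in upland soil, greenhouse-grown 2 weeks, then sprayed on foliage with compound as emulsifiable concentrate in water plus spreading agent at 5 liters per are. Scored 3 weeks later from aerial fresh weight as percent of untreated plants, converted to a rating scale.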

[2] = tested on: barnyardgrass; experiment: Test Example 1, foliar treatment, herbicidal activity; type: in vivo, Echinochloa crus-galli; settings: 3 weeks; further: ranges in brackets are in %
Procedure, shortened: as §1

[3] = tested on: wild mustard; experiment: as above; type: in vivo, Brassica kaber; settings: 3 weeks
Procedure, shortened: as §1

[4] = tested on: velvetleaf; experiment: as above; type: in vivo, Abutilon theophrasti; settings: 3 weeks
Procedure, shortened: as §1

[5] = tested on: cocklebur; experiment: Test Example 2, field foliar treatment, herbicidal activity; type: in vivo, Xanthium pennsylvanicum; settings: 3 weeks; further: ranges in brackets are in %
Procedure: (§2) The application of the tetrahydrophthalimides (I) as herbicides will be illustratively shown in the following Examples wherein the phytotoxicity to cultivated plants and the herbicidal activity on weeds were evaluated as follows: the aerial parts of the test plants were cut off and weighed (fresh weight); the percentage of the fresh weight of the treated plant to that of the untreated plant was calculated with the latter fresh weight taken as 100; and the crop damage and the herbicidal activity were evaluated by the standard given in the table below. The rating values of phytotoxicity, 0 and 1, and those of herbicidal effect, 5 and 4, are generally regarded as satisfactory to protect cultivated plants and control weeds, respectively. The rating values in the paddy field test alone were calculated from the dry weight of the test plants.
(§3) Seeds of corn and broad-leaved weeds such as cocklebur, common purslane and tall morningglory were sown in the field as previously laid up in ridges, each ridge having an upper width of 1 m. At the time when the corn grew up to the 6-leaf stage and the broad-leaved weeds up to 2 to 5-leaf stages, a designed amount of the test compound formulated into an emulsifiable concentrate according to Preparation Example 2 and dispersed in water was sprayed to the foliage of the test plants with three replications over the top by means of a small hand sprayer at a spray volume of 5 liters per are. After cultivation for 3 weeks, herbicidal activity and phytotoxicity were examined.

[6] = tested on: common purslane; experiment: as above; type: in vivo, Portulaca oleracea; settings: 3 weeks; further: ranges in brackets are in %
Procedure: as §2, §3

[7] = tested on: corn; experiment: Test Example 3, soil surface spraying, phytotoxicity to corn; type: in vivo; settings: 20 days; further: ranges in brackets are in %
Procedure: as §2
(§4) Plastic trays (35 cm×25 cm×15 cm) were filled with upland field soil, and the seeds of tall morningglory, velvetleaf and sicklepod and the seeds of corn were sown therein. A designed amount of the test compounds formulated into a wettable powder according to Preparation Example 1 was dispersed in water and applied by spraying at a spray volume of 5 liters per are to the whole surface of the soil. After the spraying, the test plants were placed in a greenhouse and grown for 20 days, and herbicidal activity and phytotoxicity were examined.

[8] = tested on: sicklepod; experiment: Test Example 3, soil surface spraying, herbicidal activity; type: in vivo, Cassia obtusifolia; settings: 20 days; further: ranges in brackets are in %
Procedure: as §2, §4

[9] = tested on: velvetleaf; experiment: as above; type: in vivo, Abutilon theophrasti; settings: 20 days
Procedure: as §2, §4

[10] = tested on: corn; experiment: Test Example 4, pre-emergence treatment, phytotoxicity to corn; type: in vivo; settings: 20 days; further: ranges in brackets are in %
Procedure, shortened: (§5)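 Pre-emergence soil spray: EC formulation diluted in water with spreader, 5 liters per are, applied right after sowing in upland soil. Greenhouse, 20 d. Readout: aerial fresh wt as % untreated control, scored on a rating scale.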

[11] = tested on: morningglory; experiment: Test Example 4, pre-emergence treatment, herbicidal activity; type: in vivo; settings: 20 days; further: ranges in brackets are in %
Procedure, shortened: as §5

[12] = tested on: Johnsongrass; experiment: as above; type: in vivo, Sorghum halepense; settings: 20 days
Procedure, shortened: as §5

[13] = tested on: soybean; experiment: Test Example 5, spraying over the top, phytotoxicity to soybean; type: in vivo; settings: sprayed over the top, 20 days; further: ranges in brackets are in %
Procedure: as §2
(§6) Plastic trays (35 cm×25 cm×15 cm) were filled with upland field soil, and the seeds of tall morningglory, velvetleaf, jimsonweed, sicklepod, hemp sesbania, prickly side, Johnsongrass, green foxtail and large crabgrass and the seeds of soybean were sown therein. A designed amount of the test compound formulated into a wettable powder according to Preparation Example 1 and dispersed in water was sprayed over the top by means of a small hand sprayer at a spray volume of 5 liters per are. After the spraying, the test plants were grown in greenhouse for 20 days, and phytotoxicity and herbicidal activity were examined.

[14] = tested on: tall morningglory; experiment: Test Example 5, spraying over the top, herbicidal activity; type: in vivo, Ipomoea purpurea; settings: sprayed over the top, 20 days; further: ranges in brackets are in %
Procedure: as §2, §6

[15] = tested on: velvetleaf; experiment: as above; type: in vivo, Abutilon theophrasti; settings: sprayed over the top, 20 days
Procedure: as §2, §6

[16] = tested on: jimsonweed; experiment: as above; type: in vivo, Datura stramonium; settings: sprayed over the top, 20 days; further: ranges in brackets are in %
Procedure: as §2, §6

[17] = tested on: Johnsongrass; experiment: as above; type: in vivo, Sorghum halepense; settings: sprayed over the top, 20 days
Procedure: as §2, §6

[18] = tested on: rice plant; experiment: Test Example 6, paddy pot perfusion, phytotoxicity to rice plant; type: in vivo; settings: 3 weeks, dry weight; further: ranges in brackets are in %
Procedure: as §2
(§7) Wagner's pots (1/5000 are) were filled with paddy field soil containing the seeds of broad-leaved weeds (e.g. monochoria, false pimpernel, toothcup) and the seeds of barnyardgrass and hardstem bulrush, and water was poured therein until the depth of water became 4 cm. Rice seedlings of the 3.5-leaf stage and the tubers of arrowhead were transplanted therein and grown for 2 days in a greenhouse. A designed amount of the test compound formulated in an emulsifiable concentrate according to Preparation Example 2 was applied to the pots by perfusion. Thereafter, the test plants were grown for an additional 3 weeks in the greenhouse, and herbicidal activity and phytotoxicity were examined. In this treatment, the emulsifiable concentrate was dispersed in water for application at a perfusion volume of 10 liters per are.

[19] = tested on: broad-leaved weed; experiment: Test Example 6, paddy pot perfusion, herbicidal activity; type: in vivo, monochoria, false pimpernel, toothcup; settings: 3 weeks, dry weight; further: ranges in brackets are in %
Procedure: as §2, §7

[20] = tested on: hardstem bulrush; experiment: as above; type: in vivo, Scirpus juncoides; settings: 3 weeks, dry weight; further: ranges in brackets are in %
Procedure: as §2, §7
Wherever Herbicidal activity, Johnsongrass is given: ranges in brackets are in %.
Wherever Herbicidal activity, Velvetleaf is given: ranges in brackets are in %.

Row | Structure (SMILES) | Phytotoxicity, Corn ([1]; 1.25 g/are) | Phytotoxicity, Corn ([1]; 5 g/are) | Herbicidal activity, Barnyardgrass ([2]; 1.25 g/are) | Herbicidal activity, Barnyardgrass ([2]; 5 g/are) | Herbicidal activity, Wild mustard ([3]; 1.25 g/are) | Herbicidal activity, Wild mustard ([3]; 5 g/are) | Herbicidal activity, Velvetleaf ([4]; 1.25 g/are) | Herbicidal activity, Velvetleaf ([4]; 5 g/are) | Herbicidal activity, Cocklebur ([5]; 0.63 g/are) | Herbicidal activity, Cocklebur ([5]; 1.25 g/are) | Herbicidal activity, Common purslane ([6]; 0.63 g/are) | Herbicidal activity, Common purslane ([6]; 1.25 g/are) | Phytotoxicity, Corn ([7]; 5 g/are) | Phytotoxicity, Corn ([7]; 10 g/are) | Herbicidal activity, Sicklepod ([8]; 5 g/are) | Herbicidal activity, Sicklepod ([8]; 10 g/are) | Herbicidal activity, Velvetleaf ([9]; 5 g/are) | Herbicidal activity, Velvetleaf ([9]; 10 g/are) | Phytotoxicity, Soybean ([13]; 10 g/are) | Phytotoxicity, Soybean ([13]; 20 g/are) | also measured
1 | CC(C)Oc1cc(N2C(=O)C3=C(CCCC3)C2=O)c(Cl)cc1Cl [B, 2,4-dichloro-5-isopropoxyphenyltetrahydrophthalimide, reference compound] | 0 (100) | 1 (90-99) | 0 (61-100) | 2 (21-40) | 2 (21-40) | 3 (11-20) | 5 (0) | 5 (0) | 2 (21-40) | 4 (1-10) | 3 (11-20) | 4 (1-10) | 0 (100) | 0 (100) | 0 (61-100) | 1 (41-60) | 1 (41-60) | 3 (11-20) | 0 (100) | 0 (100) | Phytotoxicity, Corn ([10]; 5 g/are): 0 (100); Phytotoxicity, Corn ([10]; 20 g/are): 1 (90-99); Herbicidal activity, Morningglory ([11]; 5 g/are): 0 (61-100); Herbicidal activity, Morningglory ([11]; 20 g/are): 1 (41-60); Herbicidal activity, Johnsongrass ([12]; 5 g/are): 1 (41-60); Herbicidal activity, Johnsongrass ([12]; 20 g/are): 2 (21-40); Herbicidal activity, Tall morningglory ([14]; 10 g/are): 0 (61-100); Herbicidal activity, Tall morningglory ([14]; 20 g/are): 0 (61-100); Herbicidal activity, Velvetleaf ([15]; 10 g/are): 4 (1-10); Herbicidal activity, Velvetleaf ([15]; 20 g/are): 5 (0); Herbicidal activity, Jimsonweed ([16]; 10 g/are): 4 (1-10); Herbicidal activity, Jimsonweed ([16]; 20 g/are): 4 (1-10); Herbicidal activity, Johnsongrass ([17]; 10 g/are): 2 (21-40); Herbicidal activity, Johnsongrass ([17]; 20 g/are): 3 (11-20); Phytotoxicity, Rice plant ([18]; 1.25 g/are): 0 (100); Phytotoxicity, Rice plant ([18]; 2.5 g/are): 0 (100); Herbicidal activity, Broad-leaved weed ([19]; 1.25 g/are): 5 (0); Herbicidal activity, Broad-leaved weed ([19]; 2.5 g/are): 5 (0); Herbicidal activity, Hardstem bulrush ([20]; 1.25 g/are): 1 (41-60); Herbicidal activity, Hardstem bulrush ([20]; 2.5 g/are): 2 (21-40)
2 | O=C1C2=C(CCCC2)C(=O)N1c1ccc(Cl)cc1F [A, 2-fluoro-4-chlorophenyltetrahydrophthalimide, reference compound] | 1 (90-99) | 2 (80-89) | 1 (41-60) | 3 (11-20) | 3 (11-20) | 5 (0) | 5 (0) | 5 (0) | 1 (41-60) | 4 (1-10) | 2 (21-40) | 3 (11-20) | 2 (80-89) | 3 (60-79) | 0 (61-100) | 1 (41-60) | 3 (11-20) | 4 (1-10) | 1 (90-99) | 2 (80-89) | Phytotoxicity, Corn ([10]; 2.5 g/are): 0 (100); Phytotoxicity, Corn ([10]; 10 g/are): 2 (80-89); Herbicidal activity, Morningglory ([11]; 2.5 g/are): 1 (41-60); Herbicidal activity, Morningglory ([11]; 10 g/are): 2 (21-40); Herbicidal activity, Johnsongrass ([12]; 2.5 g/are): 1 (41-60); Herbicidal activity, Johnsongrass ([12]; 10 g/are): 3 (11-20); Herbicidal activity, Tall morningglory ([14]; 10 g/are): 0 (61-100); Herbicidal activity, Tall morningglory ([14]; 20 g/are): 1 (41-60); Herbicidal activity, Velvetleaf ([15]; 10 g/are): 5 (0); Herbicidal activity, Velvetleaf ([15]; 20 g/are): 5 (0); Herbicidal activity, Jimsonweed ([16]; 10 g/are): 4 (1-10); Herbicidal activity, Jimsonweed ([16]; 20 g/are): 5 (0); Herbicidal activity, Johnsongrass ([17]; 10 g/are): 4 (1-10); Herbicidal activity, Johnsongrass ([17]; 20 g/are): 5 (0); Phytotoxicity, Rice plant ([18]; 1.25 g/are): 0 (100); Phytotoxicity, Rice plant ([18]; 2.5 g/are): 1 (90-99); Herbicidal activity, Broad-leaved weed ([19]; 1.25 g/are): 5 (0); Herbicidal activity, Broad-leaved weed ([19]; 2.5 g/are): 5 (0); Herbicidal activity, Hardstem bulrush ([20]; 1.25 g/are): 2 (21-40); Herbicidal activity, Hardstem bulrush ([20]; 2.5 g/are): 3 (11-20)
